Experiments:
[1] = system: Puccinia recondita f. Sp. Tritici; assay: Puccinia recondita f. sp. tritici / wheat / leaf disc preventative (brown rust); format: in vivo; details: foliar, 200 ppm in the applied formulation, wheat leaf segments cv. Kanzler, inoculated 1 day after application, vs untreated, 7 to 9 days after application, read-out: disease control
Method in brief: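 Segments of cv. Kanzler wheat on agar received a spray of compound formulation diluted in water and were inoculated with spores one day afterwards. Kept at 19° C and 75% rh under 12 h/12 h light; disease control relative to untreated checks rated at 7–9 days post-application.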

[2] = system: Puccinia recondita f. Sp. Tritici; assay: Puccinia recondita f. sp. tritici / wheat / leaf disc curative (brown rust); format: in vivo; details: foliar, 200 ppm in the applied formulation, wheat leaf segments cv. Kanzler, compound applied 1 day after inoculation, vs untreated, 6 to 8 days after application, read-out: disease control
Method: Leaf disks or leaf segments of various plant species are cut from plants grown in a greenhouse. The cut leaf disks or segments are placed in multiwell plates (24-well format) onto water agar. The leaf disks are sprayed with a test solution before (preventative) or after (curative) inoculation. Compounds to be tested are prepared as DMSO solutions (max. 10 mg/ml) which are diluted to the appropriate concentration with 0.025% Tween20 just before spraying. The inoculated leaf disks or segments are incubated under defined conditions (temperature, relative humidity, light, etc.) according to the respective test system. A single evaluation of disease level is carried out 3 to 14 days after inoculation, depending on the pathosystem. Percent disease control relative to the untreated check leaf disks or segments is then calculated.
Example 2: Fungicidal Activity Against Puccinia recondita f. sp. tritici/Wheat/Leaf Disc Curative (Brown Rust)
Wheat leaf segments cv. Kanzler are placed on agar in multiwell plates (24-well format). The leaf segments are then inoculated with a spore suspension of the fungus. Plates were stored in darkness at 19° C. and 75% relative humidity. The Formulated test compound diluted in water was applied 1 day after inoculation. The leaf segments were incubated at 19° C. and 75% relative humidity under a light regime of 12 hours light/12 hours darkness in a climate cabinet and the activity of a compound was assessed as percent disease control compared to untreated when an appropriate level of disease damage appears in untreated check leaf segments (6 to 8 days after application).
The following compounds at 200 ppm in the applied Formulation give at least 80% disease control in this test when compared to untreated control leaf disks under the same conditions, which show extensive disease development.

[3] = system: Phakopsora pachyrhizi; assay: Phakopsora pachyrhizi / soybean / leaf disc preventative (Asian soybean rust); format: in vivo; details: foliar, 200 ppm in the applied formulation, soybean leaf disks, inoculated one day after application, vs untreated, 12 to 14 days after application, read-out: disease control
Method in brief: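 Soybean leaf discs on water agar sprayed with formulated compound diluted in water, then inoculated one day later with spore suspension on the lower surface. Held 24-36 h dark at 20 °C, 75% rh, then 12 h light/day; percent disease control versus untreated scored 12-14 days after application.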

[4] = system: Glomerella lacenarium (Colletotrichum lacenarium); assay: Glomerella lacenarium (Colletotrichum lacenarium) liquid culture / cucumber / preventative (anthracnose); format: cell-based; details: 20 ppm, liquid culture in PDB, 24° C., inhibition of growth measured photometrically 3 to 4 days after application, vs untreated, read-out: disease control
Method in brief: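 Cryopreserved conidia in potato dextrose broth were added to test compound in a 96-well microtiter plate and incubated at 24 °C. Growth inhibition read photometrically 3–4 days after application, as percent activity versus untreated check.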

CN(C(=O)C1CCCO1)c1ccc(-c2noc(C(F)(F)F)n2)cc1 (stereo not shown) [Compound 1.141, N-methyl-N-[4-[5-(trifluoromethyl)-1,2,4-oxadiazol-3-yl]phenyl] tetrahydrofuran-2-carboxamide]
≥ 80%: pest or weed control at 200 ppm [1] | pest or weed control at 200 ppm [2] | pest or weed control at 200 ppm [3] | inhibition of growth at 20 ppm [4]

CN(C(=O)C1(C#N)CC1)c1ccc(-c2noc(C(F)(F)F)n2)cc1 [Compound 1.142, 1-cyano-N-methyl-N-[4-[5-(trifluoromethyl)-1,2,4-oxadiazol-3-yl]phenyl]cyclo-propanecarboxamide]
≥ 80%: pest or weed control at 200 ppm [1] | pest or weed control at 200 ppm [2] | pest or weed control at 200 ppm [3] | inhibition of growth at 20 ppm [4]

COC(C)C(=O)N(C)c1ccc(-c2noc(C(F)(F)F)n2)cc1 (stereo not shown) [Compound 1.143, 2-methoxy-N-methyl-N-[4-[5-(trifluoromethyl)-1,2,4-oxadiazol-3-yl]phenyl] propanamide]
≥ 80%: pest or weed control at 200 ppm [1] | pest or weed control at 200 ppm [2] | pest or weed control at 200 ppm [3] | inhibition of growth at 20 ppm [4]

C#CCCC(=O)Nc1ccc(-c2noc(C(F)(F)F)n2)cc1 [Compound 2.4, N-[4-[5-(trifluoromethyl)-1,2,4-oxadiazol-3-yl]phenyi]pent-4-ynamide]
≥ 80%: pest or weed control at 200 ppm [1] | pest or weed control at 200 ppm [2] | pest or weed control at 200 ppm [3] | inhibition of growth at 20 ppm [4]

CCCC(=O)Nc1ccc(-c2noc(C(F)(F)F)n2)cc1 [Compound 2.5, N-[4-[5-(trifluoromethyl)-1,2,4-oxadiazol-3-yl]phenyl] butanamide]
≥ 80%: pest or weed control at 200 ppm [1] | pest or weed control at 200 ppm [2] | pest or weed control at 200 ppm [3] | inhibition of growth at 20 ppm [4]

O=C(Nc1ccc(-c2noc(C(F)(F)F)n2)cc1)C1CC=CC1 [Compound 2.7, N-[4-[5-(trifluoromethyl)-1,2,4-oxadiazol-3-yl]phenyl]cyclopent-3-ene-1-carboxamide]
≥ 80%: pest or weed control at 200 ppm [1] | pest or weed control at 200 ppm [2] | pest or weed control at 200 ppm [3] | inhibition of growth at 20 ppm [4]

N#CCC(=O)Nc1ccc(-c2noc(C(F)(F)F)n2)cc1 [Compound 2.13, 2-cyano-N-[4-[5-(trifluoromethyl)-1,2,4-oxadiazol-3-yl]phenyl] acetamide]
≥ 80%: pest or weed control at 200 ppm [1] | pest or weed control at 200 ppm [2] | pest or weed control at 200 ppm [3] | inhibition of growth at 20 ppm [4]

COCCCC(=O)Nc1ccc(-c2noc(C(F)(F)F)n2)cc1 [Compound 2.16, 4-methoxy-N-[4-[5-(trifluoromethyl)-1,2,4-oxadiazol-3-yl]phenyl] butanamide]
≥ 80%: pest or weed control at 200 ppm [1] | pest or weed control at 200 ppm [2] | pest or weed control at 200 ppm [3] | inhibition of growth at 20 ppm [4]

CN(C(=O)c1ccccc1)c1ccc(-c2noc(C(F)(F)F)n2)cc1 [Compound 2.20, N-methyl-N-[4-[5-(trifluoromethyl)-1,2,4-oxadiazol-3-yl]phenyl]benzamide]
≥ 80%: pest or weed control at 200 ppm [1] | pest or weed control at 200 ppm [2] | pest or weed control at 200 ppm [3] | inhibition of growth at 20 ppm [4]

CC(=O)Nc1ccc(-c2noc(C(F)(F)F)n2)cn1 [Compound 2.29, N-[5-[5-(trifluoromethyl)-1,2,4-oxadiazol-3-yl]-2-pyridyl]acetamide]
≥ 80%: pest or weed control at 200 ppm [1] | pest or weed control at 200 ppm [2] | pest or weed control at 200 ppm [3] | inhibition of growth at 20 ppm [4]
